Calls of active or inactive are those of the source.
Key:
[1] = target: T1, Calpain-2 catalytic subunit (Sus scrofa, UniProt P43367); test: pig calpain II inhibitor potency, dose response, biochemical, fluorogenic peptide substrate (AID 1420); assay type: functional
T1 sequence (P43367 whole entry): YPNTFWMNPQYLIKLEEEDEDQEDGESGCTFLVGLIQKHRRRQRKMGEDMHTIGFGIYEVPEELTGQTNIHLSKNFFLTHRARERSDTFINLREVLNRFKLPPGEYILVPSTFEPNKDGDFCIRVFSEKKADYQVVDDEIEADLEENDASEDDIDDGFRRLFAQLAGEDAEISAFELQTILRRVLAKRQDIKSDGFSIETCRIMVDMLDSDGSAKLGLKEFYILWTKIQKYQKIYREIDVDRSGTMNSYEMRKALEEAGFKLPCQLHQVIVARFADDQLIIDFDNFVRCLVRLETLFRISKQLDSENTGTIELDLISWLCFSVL

[2] = HEp-2 cell cytotoxicity, dose response, cytotoxicity control for RSV inhibitor project, HTS (AID 2410); assay type: functional; details: human respiratory syncytial virus
H9c2 = test: cells; assay type: functional, cell-based; details: Rattus norvegicus, H9c2, Myocardium;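 further: confirmatory concentration-response retest of ultra-high-throughput screening hits for modulation of myocardial damage; cell death induced by hydrogen peroxide oxidative stress; compound pretreatment for 60 min then peroxide exposure for 2 h; potency is for protecting the cells against peroxide damage rather than for killing them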
[3] = Luminescence Cell-Based Dose Confirmation HTS to Identify Inhibitors of Platelet Dense Granule Release. [Related pubchem assays: 1663 (Primary HTS), 1678 (Summary of Project)]; assay type: functional
[4] = target: Luciferin 4-monooxygenase (Photinus pyralis, UniProt P08659); test: firefly luciferase enzyme inhibitors, dose response, biochemical, luminescence (AID 1891)
[5] = Luminescence Cell-Based Dose Retest to Confirm Inhibitors of Cancer Stem Cells. [Related pubchem assays (depositor defined):AID2717, AID2721]; assay type: functional; details: Homo sapiens
[6] = inhibitors of intracellular T. cruzi replication, confirmation, NIH3T3 host cells, beta-gal luminescence (AID 2044); assay type: functional, cell-based;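 further: intracellular parasites grown in NIH/3T3 mouse fibroblasts as host cells; luminescent beta-galactosidase reporter signal from transgenic T. cruzi replicating inside host cells; inhibitors lower the luminescence signal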
[7] = cytotoxicity toward NIH3T3 fibroblasts, dose response, counter-screen, cell-based, ATP luminescence, mouse fibroblasts (AID 2010); assay type: functional;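 further: cells exposed to compound for about 90 hours before reading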
[8] = Luminescence Cell-Based Dose Response HTS to Identify Inhibitors of 5'UTR Stem-Loop Driven Prion Protein mRNA Translation in H4 Neuroglioblastoma Cells. [Related pubchem assays: 1827 (Project Summary), 1813 (Primary HTS)]; assay type: functional
[9] = target: T2, Rac GTPase-activating protein 1 (Homo sapiens, UniProt Q9H0H5); test: MgcRacGAP GTPase-activating activity inhibitors, confirmation, biochemical, ADP Hunter fluorescence, primary and confirmatory (AID 624330); assay type: functional
T2 sequence (Q9H0H5 whole entry): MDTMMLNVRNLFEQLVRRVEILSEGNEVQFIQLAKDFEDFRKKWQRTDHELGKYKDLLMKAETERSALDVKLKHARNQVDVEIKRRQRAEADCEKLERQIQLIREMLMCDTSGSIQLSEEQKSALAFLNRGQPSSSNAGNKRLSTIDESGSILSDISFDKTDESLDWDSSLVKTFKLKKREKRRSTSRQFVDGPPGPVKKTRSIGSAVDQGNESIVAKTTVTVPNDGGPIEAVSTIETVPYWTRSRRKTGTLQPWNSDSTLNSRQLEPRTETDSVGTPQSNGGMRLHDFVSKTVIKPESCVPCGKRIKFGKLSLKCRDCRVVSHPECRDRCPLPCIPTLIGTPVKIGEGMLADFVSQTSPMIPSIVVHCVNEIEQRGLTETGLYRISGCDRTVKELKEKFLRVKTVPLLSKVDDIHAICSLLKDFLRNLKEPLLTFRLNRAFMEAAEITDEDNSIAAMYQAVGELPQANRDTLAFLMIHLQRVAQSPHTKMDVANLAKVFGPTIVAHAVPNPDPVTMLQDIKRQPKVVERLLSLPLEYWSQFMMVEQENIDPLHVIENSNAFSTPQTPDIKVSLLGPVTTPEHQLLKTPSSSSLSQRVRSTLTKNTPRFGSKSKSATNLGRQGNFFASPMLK
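Wherever AC50 is given: cells exposed to compound for roughly 70 hours or longer before luminescence read.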

Chain of Luciferin 4-monooxygenase (P08659 whole entry): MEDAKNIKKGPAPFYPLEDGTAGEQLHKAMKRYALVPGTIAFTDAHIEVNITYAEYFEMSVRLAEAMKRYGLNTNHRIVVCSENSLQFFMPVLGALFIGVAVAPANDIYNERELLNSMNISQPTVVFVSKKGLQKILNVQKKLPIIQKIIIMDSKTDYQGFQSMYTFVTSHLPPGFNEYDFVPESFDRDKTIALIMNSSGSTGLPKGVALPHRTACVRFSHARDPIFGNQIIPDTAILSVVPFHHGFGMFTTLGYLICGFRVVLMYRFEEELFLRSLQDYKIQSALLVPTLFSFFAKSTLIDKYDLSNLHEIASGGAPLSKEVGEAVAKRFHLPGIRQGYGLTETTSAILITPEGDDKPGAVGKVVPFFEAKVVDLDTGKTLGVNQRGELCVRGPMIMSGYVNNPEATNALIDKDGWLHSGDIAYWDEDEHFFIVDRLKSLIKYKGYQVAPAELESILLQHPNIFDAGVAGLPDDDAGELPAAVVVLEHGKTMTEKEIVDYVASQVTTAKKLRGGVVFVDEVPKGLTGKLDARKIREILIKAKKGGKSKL

Cc1ccc(C2CCN(C(S)=Nc3cccc(C)c3)C2)cc1 (configuration not stated)
IC50 [1]: 9.72 µM (not active)

Cc1ccc(C2(CCNCc3ccc(N(C)C)cc3)CCOC(C(C)C)C2)cc1 (configuration not stated)
CC50 [2]: 12.6 µM (active)

Cc1ccc(-c2nnc(NCc3nc4ccccc4[nH]3)c3ccccc23)cc1S(=O)(=O)N1CCOCC1
IC50 (H9c2): > 79 µM (inactive)

CCOC(=O)N1CCc2c(sc(NC(=O)CN3CCOCC3)c2C(=O)Nc2ccccc2)C1
IC50 (H9c2): 22.8 µM (active)

O=c1oc(Nc2cccc(Cl)c2)nc2ccccc12
EC50 [3]: 16 µM (active)
EC50 [4]: 37.7 µM (active)

Cn1c(=O)n(C)c2cc([N+](=O)[O-])c(N3CCN(CCO)CC3)cc21
IC50 [1]: 7.45 µM (not active)

O=C(CCN1Cc2ccccc2C1)c1ccc2c(c1)OCCO2
AC50 [5]: 11.5 µM (active)

CCCCn1c(N)c(N(CC(C)C)C(=O)c2ccc(Br)s2)c(=O)[nH]c1=O
EC50 [3]: > 112 µM (not active)
EC50 [4]: > 112 µM (not active)

COc1ccccc1N(Cc1ccccc1)S(=O)(=O)c1cccc(C(=O)Nc2ccc(C)cn2)c1
EC50 [6]: 1.58 µM (active)
EC50 [7]: > 30 µM (not active)
CC50 [2]: 11 µM (active)

CCOc1ccccc1Cn1c(=O)sc2ccccc21
IC50 [1]: 13.1 µM (not active)

COc1cccc(C2CC(c3ccccc3OC)n3nc(N)nc3N2)c1 (configuration not stated)
IC50 [1]: > 50 µM (not active)

CCc1ccc(NC(=O)Nc2ccsc2C(=O)OC)cc1
EC50 [3]: 2.06 µM (active)
EC50 [4]: 0.701 µM (active)

Cc1cc2nnc(SC(C)C)n2c2ccccc12
CC50 [2]: > 50 µM (active)

Cc1ccc(-c2nc3ccccc3[nH]2)s1
EC50 [3]: 7.89 µM (active)
EC50 [4]: 0.951 µM (active)

N#CCCN(C(=O)COC(=O)CCc1nc(O)c2ccccc2n1)c1ccc(F)cc1
IC50 (H9c2): > 79 µM (inactive)

COc1ccc(OC)c(NC(=O)c2sc3ncnc(N4CCN(c5ccccn5)CC4)c3c2C)c1
IC50 (H9c2): > 79 µM (inactive)

O=C(CN1C(=O)C2CC=CCC2C1=O)Nc1nc(-c2ccc(F)c(F)c2)cs1 (configuration not stated)
IC50 (H9c2): > 79 µM (inactive)

CN(C)S(=O)(=O)n1cc(/C=C(\NC(=O)c2ccccc2F)C(=O)NCCN2CCOCC2)c2ccccc21
IC50 (H9c2): > 79 µM (inactive)

S=C(NCC1CC1)N/N=C/c1ccccc1Cl
EC50 [3]: > 112 µM (not active)
EC50 [4]: > 112 µM (not active)

COc1ccc(CC(=O)NCC(=O)N/N=C/c2cc(Br)ccc2OC)cc1
IC50 (H9c2): 34.7 µM (inactive)

CCc1nnc(S)n1/N=C/c1c(C)nn(-c2ccccc2)c1Cl
EC50 [8]: 19 µM (active)

CSc1ccc(/C=N/NC(=O)c2cc(O)cc(O)c2)cc1
EC50 [3]: 10 µM (active)
EC50 [4]: 1.22 µM (active)

COc1ccc(C(=O)Nc2ccccc2C(=O)N/N=C/c2ccncc2)cc1OC
EC50 [3]: 0.564 µM (active)
EC50 [4]: 0.609 µM (active)

C/C(=N\O)[C@H]1CC[C@H]2[C@@H]3CC[C@H]4C/C(=N\O)CC[C@]4(C)[C@H]3C(C)(O)C[C@]12C (some centres not stated)
IC50 (H9c2): > 79 µM (inactive)

Oc1ccc(/C=C/c2ccc3ccccc3n2)cc1
CC50 [2]: 19.7 µM (active)
EC50 [3]: 0.235 µM (active)
IC50 [9]: 28 µM (active)
EC50 [4]: 0.161 µM (active)

Source: ChEMBL document CHEMBL1201862, “PubChem BioAssay data set” (2004)
